# Laboratory results: US11873298B2, “Compounds and uses thereof” (JANSSEN PHARMACEUTICA NV, priority 2017, dated 2024)
# Legend:
# [1] = tested on: yeast strains expressing the human ApoE4; assay: Yeast ApoE4 toxicity rescue assay (OD600 growth); conditions: 24 h; for Emax: read-out: ApoE4 Emax; for EC50: read-out: ApoE4 EC50
# Excerpt: (§2) The induced expression of α-synuclein and ApoE4 confers cytotoxicity, thus enabling the identification of compounds that can restore cell viability. This instantaneous/synchronous induction of α-synuclein and ApoE4 can be achieved due to the following expression control. In glucose-containing media, gene expression from the GAL1 promoter is ‘off’ and actively repressed by additional epigenetic factors. In raffinose, expression is ‘off’, but the promoter not actively repressed. Upon transition to galactose-containing media, the promoter is instantaneously turned ‘on’ to achieve robust and synchronous induction of α-synuclein or ApoE4 expression. This highly regulated induction provides a robust window for the determination of both efficacy (amplitude of protective effect) and potency (concentration of protective effect) of cytoprotective compounds.
# (§3) Re-suspended compound stocks were subsequently arrayed into 384 well compound plates using automated pipetting. All other wells not receiving stock compound were filled with 10 μL of 100% DMSO using an automated plate filler (Multidrop Combi). An 11 point, 2-fold serial dilution was then performed using the robotic platform. Compound assay plates were covered with foil and stored at −20° C. until use.
# (§4) Each strain was handled according to standard protocols and cultured in media composed of CSM (complete synthetic media), YNB (yeast nitrogenous base), and a 2% (w/v) carbon source (either glucose, raffinose, or galactose).
# (§5) In a standard yeast assay, a single-use aliquot of cells was thawed on ice and diluted into CSM/glucose (5 mL). Cultures were grown for 8 hours at 30° C. This pre-growth enables the yeast to exit the thaw and begin to grow without expressing aSyn or ApoE4. After 8 hours, cell density (OD600) was determined and cultures diluted to an OD600 of 0.01 in CSM/raffinose for an overnight culture phase at 30° C. During this period, the active glucose repression of the GAL1 promoter was relieved; however, expression of the α-Syn/ApoE4 genes were not yet induced. After ˜16 hours of growth, cultures attain an OD600 of 0.4-0.8 and were ready to apply to assay plates containing compound.
# (§6) Compound profiling assays were executed in clear-bottom 384 well plates. First, compound plates were thawed at room temperature for 45′, centrifuged at 1,000×g for 1 minute, and the foil removed. Clear 384 well assay plates were then filled with 15 μL of CSM/galactose. […] The pin tool was washed iteratively with both 50% DMSO and 100% ethanol between each assay plate. After delivering compound to each assay plate, the overnight CSM/raffinose aSyn or ApoE4 cultures were added at a 2X cell density (0.04 for aSyn and 0.08 for ApoE4) in CSM/galactose to achieve a final assay OD600 of 0.02 and 0.04 for aSyn and ApoE, respectively. The cultures (15 μL per well) were then dispensed to the compound -containing 384 well assay plates using an automated plate filler. Plates were incubated in a humidified 30° C. incubator for 40 or 24 hours for aSyn and ApoE4, respectively. The ODsoo of each assay plate was then read with a microplate reader (e.g., Perkin Elmer Envision).
# (§7) The efficacy and potency of compounds were calculated according to the following. Raw data (OD600 values) were first background corrected to account for OD600 contributed by the plate and media itself. The efficacy (percent above DMSO, herein referred to as “Emax”) was calculated according to the equation: (Experimental well−DMSO control well)/(DMSO control well)*100. […] Normalized dose-response data was fit with a logistic regression curve using Spotfire (TIBCO), or similar curve-fitting software package. EC50 values were then reported along with EMax to provide both efficacy and potency measures for each analog and enable further compound design.
# [2] = molecular target: T1, SCD5 (Homo sapiens, UniProt Q86SK9); assay: Growth inhibition of humanized yeast strain expressing SCD5 as sole desaturase; format: cell-based; conditions: humanized yeast strain expressing SCD5
# T1 construct: host or cells: S. cerevisiae ole1Δ strain (W303 pdr1Δ pdr3Δ background), plasmid pRS316 with TDH3 promoter and CYC1 terminator
# T1 sequence (Q86SK9 1-330): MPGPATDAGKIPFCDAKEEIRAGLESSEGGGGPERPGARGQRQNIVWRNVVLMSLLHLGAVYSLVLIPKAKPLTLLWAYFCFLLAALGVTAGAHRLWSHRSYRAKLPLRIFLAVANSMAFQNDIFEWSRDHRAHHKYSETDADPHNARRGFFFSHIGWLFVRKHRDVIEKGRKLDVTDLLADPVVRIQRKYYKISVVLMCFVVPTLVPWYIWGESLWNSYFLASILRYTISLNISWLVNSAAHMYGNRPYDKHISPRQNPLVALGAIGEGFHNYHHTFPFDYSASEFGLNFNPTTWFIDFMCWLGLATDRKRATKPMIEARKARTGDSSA
# Outline: (§1)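 Plasmid-complemented ole1Δ yeast, drug-pump deleted (pdr1Δ pdr3Δ), depend solely on the introduced Ole1, SCD1 or SCD5 desaturase. Compounds are added from DMSO to cells in uracil-free galactose medium, 2× density 0.02, and OD600 is read after 24 h or 40 h respectively.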
# [3] = molecular target: T2, Ole1 (Saccharomyces cerevisiae, UniProt P21147); assay: Growth inhibition of yeast strain expressing Ole1 as sole desaturase; format: cell-based; conditions: yeast strain expressing Ole1 as sole desaturase
# T2 construct: expressed in transfected cells; host or cells: S. cerevisiae ole1Δ strain (W303 pdr1Δ pdr3Δ background), plasmid pRS316 with TDH3 promoter and CYC1 terminator
# T2 sequence (P21147 1-510): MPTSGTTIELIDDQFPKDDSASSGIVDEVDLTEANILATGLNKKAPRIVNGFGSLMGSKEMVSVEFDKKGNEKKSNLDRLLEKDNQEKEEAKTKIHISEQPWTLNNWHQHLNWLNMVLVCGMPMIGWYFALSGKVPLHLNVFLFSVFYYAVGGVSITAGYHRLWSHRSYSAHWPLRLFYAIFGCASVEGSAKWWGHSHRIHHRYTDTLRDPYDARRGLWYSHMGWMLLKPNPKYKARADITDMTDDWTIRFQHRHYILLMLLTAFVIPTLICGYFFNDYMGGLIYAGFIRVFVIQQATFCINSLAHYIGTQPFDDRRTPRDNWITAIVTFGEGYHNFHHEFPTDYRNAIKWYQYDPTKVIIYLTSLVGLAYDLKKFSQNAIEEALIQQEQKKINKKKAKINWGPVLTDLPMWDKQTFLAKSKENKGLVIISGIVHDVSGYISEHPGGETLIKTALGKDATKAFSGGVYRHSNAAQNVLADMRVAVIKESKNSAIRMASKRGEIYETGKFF
# Outline: as §1
# [4] = molecular target: T3, SCD1 (Homo sapiens, UniProt O00767); assay: Growth inhibition of humanized yeast strain expressing SCD1 as sole desaturase; format: cell-based; conditions: humanized yeast strain expressing SCD1
# T3 construct: host or cells: S. cerevisiae ole1Δ strain (W303 pdr1Δ pdr3Δ background), plasmid pRS316 with TDH3 promoter and CYC1 terminator
# T3 sequence (O00767 1-359): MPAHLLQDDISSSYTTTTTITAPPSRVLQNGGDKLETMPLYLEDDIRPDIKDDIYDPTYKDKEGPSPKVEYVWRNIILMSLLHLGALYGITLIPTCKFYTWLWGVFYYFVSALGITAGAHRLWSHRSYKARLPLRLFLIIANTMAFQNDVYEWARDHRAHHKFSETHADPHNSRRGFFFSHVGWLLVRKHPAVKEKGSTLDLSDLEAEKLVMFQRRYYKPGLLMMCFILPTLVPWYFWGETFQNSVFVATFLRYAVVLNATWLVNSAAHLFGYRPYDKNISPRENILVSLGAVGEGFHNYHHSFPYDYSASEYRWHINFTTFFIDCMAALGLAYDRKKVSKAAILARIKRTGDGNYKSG
# Outline: as §1
# [5] = tested on: yeast strains expressing the human α-synuclein; assay: Yeast α-synuclein toxicity rescue assay (OD600 growth); conditions: 40 h; for Emax: read-out: α-Syn Emax; for EC50: read-out: α-Syn EC50
# Excerpt: as §2, §3, §4, §5, §6, §7
Structure (SMILES),Emax [1] [%],IC50 [2] [µM],IC50 [3] [µM],IC50 [4] [µM],Emax [5] [%],EC50 [1] [µM],EC50 [5] [µM],SCD5 % Max Inhibition [2] [%],OLE1 % Max Inhibition [3] [%],SCD1 % Max Inhibition [4] [%]
"COc1cccc(-c2noc(C3CCN(C(=O)[C@@H]4CC(=O)N(c5ccc(C)c(C)c5)C4)CC3)n2)c1 (single isomer, unassigned) [compound 69]",387,> 45,> 45,> 45,294,,,,,
"Cc1ccc(-c2nc(C3CCN(C(=O)[C@H]4CC(=O)N(c5ccc(C)c(C)c5)C4)CC3)no2)cc1 (single isomer, unassigned) [compound 71]",235,> 45,> 45,> 45,151,8.97,8.09,,,
"Cc1cccc(-c2nc(C3CCN(C(=O)[C@H]4CC(=O)N(c5ccc(C)c(C)c5)C4)CC3)no2)c1 (single isomer, unassigned) [compound 73]",303,> 45,> 45,33.7,151,,15.8,,,
"Cc1cccc(-c2nc(C3CCN(C(=O)[C@@H]4CC(=O)N(c5ccc(C)c(C)c5)C4)CC3)no2)c1 (single isomer, unassigned) [compound 74]",411,> 45,> 45,31.3,155,,17.9,,,
COc1ccc(-c2noc(C3CCN(C(=O)CNC(=O)c4ccccc4)CC3)n2)cc1OC [Compound 7],782,> 45,> 45,39.2,594,0.176,0.04,,,
COc1ccc(-c2noc(C3CCN(C(=O)C(C)NC(=O)c4ccccc4)CC3)n2)cc1OC (centres unmarked) [Compound 28],836,> 45,> 45,> 45,576,1.59,0.066,79.98,4.80,98.15
COc1ccc(-c2noc(C3CCN(C(=O)COCc4ccccc4)CC3)n2)cc1OC [Compound 31],721,25.4,> 45,> 45,438,9.81,7.51,24.26,79.60,81.19
COc1ccc(-c2noc(C3CCN(C(=O)/C=C/C(=O)c4ccccc4)CC3)n2)cc1OC [Compound 33],281,> 45,> 45,> 45,260,0.717,0.111,24.10,1.55,8.14
COc1ccc(-c2noc(C3CCN(C(=O)CNC(c4ccccc4)C(F)(F)F)CC3)n2)cc1OC (centres unmarked) [Compound 34],596,> 45,> 45,> 45,562,,11.1,5.37,76.89,42.55
COc1ccc(-c2nsc(C3CCN(C(=O)CNC(=O)c4ccccc4)CC3)n2)cc1OC [Compound 35],911,> 45,> 45,> 45,626,1.12,0.052,68.57,3.66,79.23
COc1ccc(-c2nc(C3CCN(C(=O)CNC(=O)c4ccccc4)CC3)no2)cc1OC [Compound 36],908,> 45,> 45,30,629,2.15,1.76,63.86,17.70,64.67
COc1ccc(-c2coc(C3CCN(C(=O)CNC(=O)c4ccccc4)CC3)n2)cc1OC [Compound 37],849,> 45,> 45,> 45,608,6.53,2.21,74.18,9.99,81.44
COc1ccc(-c2csc(C3CCN(C(=O)CNC(=O)c4ccccc4)CC3)n2)cc1OC [Compound 38],750,41,> 45,> 45,336,6.01,3.3,64.24,20.26,72.81
O=C(NCC(=O)N1CCC(c2nc(-c3ccc(F)cc3)no2)CC1)c1ccccc1 [Compound 41],400,> 45,> 45,38.7,211,,10.9,43.51,85.45,55.28
O=C(NCC(=O)N1CCC(c2nc(-c3cccc(F)c3)no2)CC1)c1ccccc1 [Compound 42],399,> 45,> 45,> 45,255,,12.5,47.40,95.43,90.77
O=C(NCC(=O)N1CCC(c2nc(-c3ccccc3F)no2)CC1)c1ccccc1 [Compound 43],517,> 45,> 45,> 45,222,17.7,14.6,65.66,107.35,76.52
COc1ccc(-c2noc(C3CCN(C(=O)Cc4ccccc4)CC3)n2)cc1OC [Compound 44],676,> 45,> 45,> 45,579,13.3,10.9,10.99,93.69,17.96
COc1ccc(-c2noc(C3CCN(C(=O)CNC(=O)C4CCCCC4)CC3)n2)cc1OC [Compound 48],874,> 45,> 45,39.3,615,2.94,1.47,75.26,8.16,63.58
COc1ccc(-c2noc(N3CCC(C(=O)NCCc4ccccc4)CC3)n2)cc1OC [Compound 49],942,> 45,> 45,> 45,636,4.34,1.47,63.18,34.89,61.29
Cc1ccc(-c2nc(C3CCN(C(=O)C4CC(=O)N(c5ccc(C)c(C)c5)C4)CC3)no2)cc1 (centres unmarked) [Compound 50],133,> 45,> 45,,85,,7.86,46.80,98.10,67.05
